Laboratory results as given in US20240009175A9, “TETRAZOLE DERIVATIVES” (Merck Patent GmbH, priority 2020, published 2024).

Columns and labels:
human rec ACSS2 = human rec ACSS2 (Homo sapiens (Human), UniProt Q9NR19); assay: Biochemical activity ACSS2 assay (AMP-Glo); settings: human recombinant ACSS2, AMP-Glo, 180 min at 37° C.
Method in brief: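 1 nM C-term myc-tagged recombinant human ACSS2 with 100 μM ATP, 100 μM Coenzyme A and 500 μM acetate (final concentrations), pH 7.5, 180 min at 37° C, compound from 30 μM over 10 concentrations. Released AMP quantified by AMP-Glo luminescence; zero set with 5 μM reference ACSS2 inhibitor, IC50 derived.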

CHO-K1 cells = assay: Micronucleus assay (MNT) in vitro; type: cell-based; set-up: key: A: negative, putative negative (micronuclei detected beyond threshold of 60% cyctotoxicity); B: positive; settings: 24 hrs treatment, 0.2 μM to 100 μM
Experimental: The in vitro MNT assay is performed in CHO-K1 cells due to their stable and well-characterized karyotype, high sensitivity and suitability for a high content imaging approach. They have a basal spontaneous micronucleus frequency of 3-4%.
24 hrs after plating CHO-K1 cells are treated with test compounds for 24 hrs (in duplicates; fixed concentration ranges from 0.2 μM to 100 μM in 2-fold dilution steps). After a medium change cells are incubated for 24 hrs with Cytochalasin B to block cytokinesis and are then fixed and nuclei/micronuclei visualized with a DNA stain. Images are acquired with the Molecular Devices high content imagers IXU or IXM and are analyzed with the dedicated MetaXpress software micronucleus module. Criteria for scoring of micronuclei (MN) are the following: • diameter of the MN should be less than ⅓ of the main nucleus • MN should be separated from or marginally overlap with main nucleus (=no blebs) • MN should have similar staining as the main nucleus
At least 1000 binucleated cells are evaluated per treatment replicate. Mitomycin C is used as reference stimulator of micronucleus formation. Cytotoxicity is evaluated in parallel and defined by comparing total nuclei count in compound-treated samples to neutral control samples treated with vehicle only (1% DMSO) (100% cytotoxicity means all cells are dead or lost).
A test compound is regarded as POSITIVE if generation of micronuclei and exhibition of less than 60% cytotoxicity at the same concentration can be observed.
Compounds are scored only in the soluble concentration range.
Experimental data of the compounds shown in Table 1 in the MNT assay are shown in Table 2 below and classified in the following groups: […]

CYP3A4 = assay: CYP-induction assay in HepaRG cells, QuantiGene Plex 2.0 (CYP3A4 induction); type: in vitro ADME, human; settings: 48 hrs; for CYP3A4 (in parentheses: lowest concentration causing at least 2-fold induction): value in parentheses; for CYP3A4 (significant induction above 20% threshold): value outside parentheses
Description: CYP-Induction Assay in HepaRG Cells with the QuantiGene Plex 2.0 Reagent System (Branched DNA-Assay) from Affymetrix (Thermo Scientific) (CYP3A4 Induction)
The QuantiGene Plex 2.0 assay combines branched DNA (bDNA) signal amplification and multi-analyte profiling beads (xMAP®) technologies to enable the detection and quantitation of multiple RNA targets simultaneously. The xMAP system combines a flow cytometer, fluorescent-dyed microspheres (beads), lasers and digital signal processing to allow multiplexing of up to 100 unique assays within a single sample.
Human HepaRG cells (Thermo Scientific) were thawed and seeded with a density of 0.72E6 cells/ml in a collagen precoated 96-well plate. After an adaption phase of 3 days in first Williams E medium (Gibco+thawing supplement, Thermo Scientific) the medium was changed to second Williams E medium (Gibco+tox supplement, Thermo Scientific). Daily treatment with test substances at 4 concentrations, started between day 3-10 of culturing, was performed with an incubation time of 48 hrs. After 48 hrs the cells were lysed with 100 μl/well (Lysis mixture, Affymetrix diluted 1:2 with Williams E medium, Gibco and addition of 5 μl proteinase K/ml of the mixture, Affymetrix). The QuantiGene Plex 2.0 assay utilizes fluorescent capture beads to trap specific RNA molecules. In order to hybridize and span contiguous sequences of the target RNA, the probe set containing 3 types of synthetic probes (Capture Extenders, Label Extenders, and Blockers) was incubated with samples and beads at 600 rpm at 54° C. for 16-20 h. Signal amplification was mediated by DNA amplification molecules that hybridize to the tails of the label extenders (incubation of the over-night hybridized beads with pre-amplifier and amplifier reagent for 1 h at 50° C. each, washing steps in between). Each amplification unit contains multiple hybridization sites for biotinylated label probes (incubation with label probe reagent for 1 h at 50° C., washing step in between) that bind Streptavidin-conjugated R-Phycoerythrin (SAPE, last incubation step for 30 min at room temp.). After the SAPE incubation, a last washing step with SAPE buffer was performed (120 μl left in wells). The resulting fluorescence signal associated with individual capture beads was detected on a Luminex 200 flow cytometer (parameters: volume 100 μl, timeout 45 sec., DD-gate 5,000-25,000, bead events 50). Signals were reported as median fluorescence intensity (MFI) and were proportional to the number of target RNA molecules present in the sample.
For analysis of results, calculation of mean values of 3 technical replicates as well as the standard deviations (% SD up to 30% acceptable) were carried out. The mean value of the blank was subtracted from the mean value of the sample. As the genes HPRT1 and TFRC are housekeeping genes, they are used to normalize sample mean values [(Sample Mean−Blank)/Housekeeper (Mean−Blank)=normalized value (HPRT1 or TFRC)]. Calculation of the fold-change was performed by dividing normalized sample values by the normalized mean values of the DMSO controls [(Sample Mean−Blank)/Housekeeper (Mean−Blank)=fc; (DMSO Mean−Blank)/Housekeeper (Mean−Blank)].
Experimental data of the compounds shown in Table 1 in the CYP3A4 assay are shown in Table 2 below and given in μM (significant induction above 20% threshold; in parentheses: lowest concentration causing at least 2-fold induction): […]

Sequence of human rec ACSS2 (Q9NR19 whole entry): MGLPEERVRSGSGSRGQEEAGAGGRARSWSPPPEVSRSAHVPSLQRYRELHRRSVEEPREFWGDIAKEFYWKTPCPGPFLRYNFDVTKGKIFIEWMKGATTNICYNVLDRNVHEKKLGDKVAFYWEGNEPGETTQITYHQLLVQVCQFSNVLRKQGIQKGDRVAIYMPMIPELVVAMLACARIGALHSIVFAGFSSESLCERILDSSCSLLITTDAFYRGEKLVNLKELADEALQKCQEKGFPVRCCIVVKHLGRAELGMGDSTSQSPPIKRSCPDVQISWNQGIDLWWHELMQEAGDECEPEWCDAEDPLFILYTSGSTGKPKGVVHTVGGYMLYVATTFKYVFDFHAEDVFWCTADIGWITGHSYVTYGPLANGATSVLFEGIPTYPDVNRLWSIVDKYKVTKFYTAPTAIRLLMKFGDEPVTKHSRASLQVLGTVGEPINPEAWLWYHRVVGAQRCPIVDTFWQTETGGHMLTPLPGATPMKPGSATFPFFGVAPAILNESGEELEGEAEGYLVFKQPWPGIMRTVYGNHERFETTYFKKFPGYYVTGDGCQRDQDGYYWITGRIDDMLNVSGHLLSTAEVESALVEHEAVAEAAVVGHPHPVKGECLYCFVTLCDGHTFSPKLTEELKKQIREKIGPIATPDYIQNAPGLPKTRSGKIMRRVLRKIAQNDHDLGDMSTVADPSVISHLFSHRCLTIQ

Row | Structure (SMILES) | IC50 (human rec ACSS2) | MNT (CHO-K1 cells) | CYP3A4 (in parentheses: lowest concentration causing at least 2-fold induction) (CYP3A4) | CYP3A4 (significant induction above 20% threshold) (CYP3A4)
1 | CCn1c(C(O)(c2ccccc2)c2ccccc2)nc2ncc(-c3nnn[nH]3)cc21 [Compound 60, [1-ethyl-6-(1H-1,2,3,4-tetrazol-5-yl)-1H-imidazo[4,5-b]pyridin-2-yl]diphenylmethanol] | 10 to 100 nM | A | – | –
2 | CCn1c(C(O)(c2ccccc2)c2ccccc2)nc2ccc(C(=O)NC[C@@H](C)O)cc21 [Reference Compound, 3-Ethyl-2-[hydroxy(diphenyl)methyl]-N-[(2R)-2-hydroxypropyl]benzimidazole-5-carboxamide, reference compound] | 100 to 10000 nM | B | 0.15 µM | 4.1 µM
3 | CCc1c(C(O)(c2ccccc2)c2ccccn2)nc2cc(OC)c(-c3nnn[nH]3)cn12 (single isomer, unassigned) [Compound 11, [3-Ethyl-7-methoxy-6-(1H-tetrazol-5-yl)-imidazo[1,2-a]pyridin-2-yl]-phenyl-pyridin-2-yl-methanol] | 1 to 10 nM | A | – | –
4 | CCc1c(C(O)(c2ccccc2)c2ccccc2)nc2cc(F)c(-c3nnn[nH]3)cn12 [Compound 3, [3-Ethyl-7-fluoro-6-(1H-tetrazol-5-yl)-imidazo[1,2-a]pyridin-2-yl]-diphenyl-methanol] | 1 to 10 nM | A | – | –
5 | CCn1c(C(O)(c2ccccc2)c2ccccc2)nc2nc(C)c(-c3nnn[nH]3)cc21 [Compound 62, [1-ethyl-5-methyl-6-(1H-1,2,3,4-tetrazol-5-yl)-1H-imidazo[4,5-b]pyridin-2-yl]diphenylmethanol] | 1 to 10 nM | A | – | –
6 | CCc1c(C(O)(c2ccccc2)c2ccccc2)nn2cc(Cl)c(-c3nnn[nH]3)cc12 [Compound 21, [6-Chloro-3-ethyl-5-(1H-tetrazol-5-yl)-pyrazolo[1,5-a]pyridin-2-yl]-diphenyl-methanol] | 1 to 10 nM | A | 50 µM | 2.6 µM
7 | CCn1c(C(O)(c2ccccc2)c2cccs2)nc2nc(OC)c(-c3nnn[nH]3)cc21 (racemic) [Compound 35, [1-ethyl-5-methoxy-6-(1H-1,2,3,4-tetrazol-5-yl)-1H-imidazo[4,5-b]pyridin-2-yl](phenyl)(thiophen-2-yl)methanol] | 1 to 10 nM | A | – | –
8 | CCn1c(C(O)(c2ccccc2F)c2ccccc2F)nc2nc(OC)c(-c3nnn[nH]3)cc21 [Compound 57, [1-ethyl-5-methoxy-6-(1H-1,2,3,4-tetrazol-5-yl)-1H-imidazo[4,5-b]pyridin-2-yl]bis(2-fluorophenyl)methanol] | 0.01 to 1 nM | A | – | –
9 | CCc1c(C(O)(c2ccccc2)c2ccccc2)nn2cc(OC)c(-c3nnn[nH]3)cc12 [Compound 22, [3-Ethyl-6-methoxy-5-(1H-tetrazol-5-yl)-pyrazolo[1,5-a]pyridin-2-yl]-diphenyl-methanol] | 1 to 10 nM | A | – | –
10 | CCn1c(C(O)(c2ccccc2)c2ccccc2)nc2nc(Cl)c(-c3nnn[nH]3)cc21 [Compound 51, [5-chloro-1-ethyl-6-(1H-1,2,3,4-tetrazol-5-yl)-1H-imidazo[4,5-b]pyridin-2-yl]diphenylmethanol] | 1 to 10 nM | A | 50 µM | 3.1 µM
11 | CCn1c(C(O)(c2ccccc2)c2ccccn2)nc2nc(OC)c(-c3nnn[nH]3)cc21 (racemic) [Compound 50, [1-ethyl-5-methoxy-6-(1H-1,2,3,4-tetrazol-5-yl)-1H-imidazo[4,5-b]pyridin-2-yl](phenyl)(pyridin-2-yl)methanol] | 1 to 10 nM | A | – | –
12 | CCc1c(C(O)(c2ccccc2)c2ccccc2)nc2cc(OC)c(-c3nnn[nH]3)cn12 [Compound 2, [3-Ethyl-7-methoxy-6-(1H-tetrazol-5-yl)-imidazo[1,2-a]pyridin-2-yl]-diphenyl-methanol] | 1 to 10 nM | A | 5 µM | 2.3 µM
13 | CCc1c(C(O)(c2ccccc2F)c2ccccc2F)nc2cc(Cl)c(-c3nnn[nH]3)cn12 [Compound 5, [7-Chloro-3-ethyl-6-(1H-tetrazol-5-yl)-imidazo[1,2-a]pyridin-2-yl]-bis-(2-fluoro-phenyl)-methanol] | 1 to 10 nM | A | – | –
14 | CCc1c(C(O)(c2ccccc2F)c2ccccc2F)nc2cc(OC)c(-c3nnn[nH]3)cn12 [Compound 6, [3-Ethyl-7-methoxy-6-(1H-tetrazol-5-yl)-imidazo[1,2-a]pyridin-2-yl]-bis-(2-fluoro-phenyl)-methanol] | 1 to 10 nM | A | – | –
15 | COc1nc2nc(C(O)(c3ccccc3)c3ccccc3)n(CCO)c2cc1-c1nnn[nH]1 [Compound 34, 2-[2-(hydroxy-diphenylmethyl)-5-methoxy-6-(1H-1,2,3,4-tetrazol-5-yl)-1H-imidazo[4,5-b]pyridin-1-yl]ethan-1-ol] | 1 to 10 nM | A | – | –
16 | CCn1c(C(O)(c2ccccc2)c2ncccn2)nc2nc(OC)c(-c3nnn[nH]3)cc21 (racemic) [Compound 37, [1-ethyl-5-methoxy-6-(1H-1,2,3,4-tetrazol-5-yl)-1H-imidazo[4,5-b]pyridin-2-yl](phenyl)(pyrimidin-2-yl)methanol] | 1 to 10 nM | A | – | –
17 | CCc1c(C(O)(c2ccccc2F)c2ccccc2F)nn2cc(OC)c(-c3nnn[nH]3)cc12 [Compound 19, [3-Ethyl-6-methoxy-5-(1H-tetrazol-5-yl)-pyrazolo[1,5-a]pyridin-2-yl]-bis-(2-fluoro-phenyl)-methanol] | 1 to 10 nM | A | – | –
18 | CCn1c(C(O)(c2cccs2)c2cccs2)nc2nc(OC)c(-c3nnn[nH]3)cc21 [Compound 38, [1-ethyl-5-methoxy-6-(1H-1,2,3,4-tetrazol-5-yl)-1H-imidazo[4,5-b]pyridin-2-yl]bis(thiophen-2-yl)methanol] | 1 to 10 nM | A | – | –
19 | CCc1c(C(O)(c2ccccc2)c2ccccc2)nc2cc(Cl)c(-c3nnn[nH]3)cn12 [Compound 9, [7-Chloro-3-ethyl-6-(1H-tetrazol-5-yl)-imidazo[1,2-a]pyridin-2-yl]-diphenyl-methanol] | 1 to 10 nM | A | – | –
